Measured values reported in PMC11721856, “Searching for novel MDM2/MDMX dual inhibitors through a drug repurposing approach” (Journal of Enzyme Inhibition and Medicinal Chemistry, 2023).

How the values were obtained:
MDMX = molecular target: T1, MDMX (Homo sapiens, UniProt O15151); experiment: competitive fluorescence polarisation, % inhibition at […]; settings: read-out: Protein binding inhibition at 1 μM(%) ^a / MDMX
T1 construct: gene MDM4; residues 1–110
T1 sequence (O15151 1-110): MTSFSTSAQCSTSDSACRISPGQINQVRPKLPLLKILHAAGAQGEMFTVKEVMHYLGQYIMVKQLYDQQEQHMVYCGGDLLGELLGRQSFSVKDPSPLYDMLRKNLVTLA

MDM2 = molecular target: T2, MDM2 (Homo sapiens, UniProt Q00987); experiment: as above; settings: read-out: Protein binding inhibition at 1 μM(%) ^a / MDM2
T2 construct: residues 1–110

SMILES	inhibition at 1 µM (MDMX) [%]	inhibition at 1 µM (MDM2) [%]
COC(=C1C(=O)Nc2cc(Cl)ccc21)c1ccccc1 [H3, 6-chloro-3-(methoxy(phenyl)methylene) indolin-2-one]	57.9 ± 6.1	72.8 ± 5.6
COC(=C1C(=O)Nc2cc(F)ccc21)c1ccccc1 [H5, 6-fluoro-3-(methoxy(phenyl)methylene) indolin-2-one]	–	56.8 ± 1.9
COC(=C1C(=O)Nc2cc(Cl)c(F)cc21)c1ccccc1 [H6, 6-chloro-5-fluoro-3-(methoxy(phenyl)methylene) indolin-2-one]	–	50.3 ± 2.5
O=C1Nc2cc(Cl)ccc2C1=C(c1ccccc1)N1CCCC1 [H7, 6-chloro-3-(phenyl(pyrrolidin-1-yl)methylene)indolin-2-one]	–	52.6 ± 2.1
